Laboratory results from patent publication US5871954A, “Fatty acid analog enzyme substrates” (Washington University, priority 1993, dated 1999).
“Also recorded” adds a separate entry of the source. Starred links: 1 amine or outer side, 2 acyl side, 3 side chain; linkers in the order of their positions; H or OH if unused. Non-standard residues stand in square brackets, D forms with d. No end group written: not given here. *: point of attachment. Tyr(125I) = 125I-iodotyrosine, O=C([C@H](Cc1ccc(O[*:3])c([125I])c1)N[*:1])[*:2]; 11‑(ethylthio)undecanoyl = CCSCCCCCCCCCCC(=O)*

How the values were obtained:
[1] = system: wheat germ NMT; test: in vitro wheat germ NMT myristoylation assay, kinetics with iodinated peptide GNAAS[125I]YRR; assay type: biochemical
Experimental: Myristoyl CoA and fatty acid analog CoA were generated by incubation of the fatty acid or analog with CoA, ATP and CoA ligase. This reaction mixture was added to wheat germ NMT and Gly-Asn-Ala-Ala-Ser-[^125 I]Tyr-Arg-Arg in the presence of 0.03% Triton® X-100. Reaction products were characterized by reverse phase HPLC and gamma counting.
The invention is illustrated in greater detail in the following Examples 1 to 15 by the synthesis and testing of representative compounds of the invention as myristoylating enzyme substrates. Accordingly, the invention is first illustrated in Examples 1 to 5 by the chemical synthesis of a sulfur-containing analog of myristic acid, namely 11-(ethylthio)undecanoicacid, CH3 CH2 --S--(CH2)10 COOH, which is then tested in vitro as a wheat germ NMT substrate. Wheat germ NMT is a protein similar to yeast NMT. The purity and chemical identity of the synthesized compound were examined using ^1 H and ^13 C NMR as well as mass spectroscopy. The assay that was used to characterize the substrate specificity of wheat germ NMT measures the rate of attachment of a radiolabelled fatty acid to an unlabelled peptide. The fatty acid analog synthesized was nonradioactive.
The in vitro assay for NMT activity requires the enzymatic generation of fatty acyl CoA. Since the Pseudomonas acyl CoA ligase is quite nonspecific [Shimizo et al., Anal. Biochem. 107, 193-198 (1980)] and is used in excess, it should equally well convert myristic acid and 11-(ethylthio)undecanoic acid to the corresponding CoA esters. It is, therefore, believed that the data represent the relative catalytic efficiency of fatty acyl CoA and analog CoA for wheat germ NMT.
Assays for NMT activity were performed using a procedure detailed previously by Towler and Glaser, Proc. Natl. Acad. Sci. USA 83, 2812-2816 (1986). Briefly, the in vitro assay measures the transfer of radiolabelled fatty acid from acyl CoA to a synthetic peptide substrate. The acylpeptide product is identified by reverse phase HPLC. Time and enzyme dependence were evaluated by varying the reaction time or the enzyme concentration. […] Fatty acid specificity was examined essentially as described by Towler et al., J. Biol. Chem. 262, 1030-1036 (1987), except that the peptide Gly-Ser-Ser-Lys-Ser-Lys-Pro-Lys rather than Gly-Asn-Ala-Ala-Ala-Ala-Arg-Arg was used to compare palmitate and myristate utilization by wheat germ NMT. This was necessary because of the presence of a large, peptide-independent peak which co-eluted with a palmitoyl-Gly-Asn-Ala-Ala-Ala-Ala-Arg-Arg standard. [^3 H]Palmitate and [^3 H]myristate were used in this comparison. [^14 C]fatty acids were used to compare C-10, C-12 and C-14 chain lengths. Fatty acyl CoA concentrations in these assays were determined by a modification of the method of Hosaka et al., Methods Enzymol. 71, 325-333 (1981).
Gly-Asn-Ala-Ala-Ser-[^125 I]Tyr-Arg-Arg as prepared in Example 2, above, was tested in an in vitro myristoylation system which was modified from that used with radiolabelled fatty acids. […] 20-fold more wheat germ NMT (480-fold purified as in Example 3, above) was used for these assays than for assays which employed [^3 H] myristate. […] Double reciprocal plots were generated for the iodinated peptide with both myristic acid and the sulfur analog by altering the peptide concentration in the presence of a constant amount of fatty acid or analog. […] The assays contained 0.03% Triton X-100 to maintain the solubility of the fatty acids.

[2] = C18 reverse phase HPLC elution of acyl peptides (hydrophobicity); assay type: physicochemical; conditions: for elution earlier than the corresponding myristoyl peptide: acyl-GNAASYRR[125I]; for Elution Time: Table 2, C18 reverse phase HPLC; for elution time of fatty acyl derivative of GNAAAARR: HPLC
Experimental: The fatty acid analog acyl-peptide eluted 7 minutes earlier than the corresponding myristoyl peptide. The free peptide elutes in the void volume (3-5 minutes).
This difference was evident when the HPLC elution characteristics of fatty acyl peptides were examined. The elution time of a particular acyl-peptide depends strongly on the peptide sequence as well as on the acyl chain attached to that peptide. For example, the elution times of fatty acyl derivatives of GNAAAARR are (in minutes) decanoic acid, 9; dodecanoic acid, 18; myristic acid, 24; and palmitic acid, 30. Elution times for fatty acyl derivatives of GNAAS[^125 I]YRR are 23 and 28 minutes for C12 and C14 fatty acids, respectively (FIG. 2). […] Such a change could alter the biological activity of myristoyl proteins.
(§1) For these Examples, each analog synthesized is characterized by ^1 H and 13C NMR as well as mass spectroscopy. The analogs are then characterized kinetically as NMT substrates. Briefly, fatty acid analogs are converted to their CoA esters with Pseudomonas CoA ligase and incubated with the iodinated peptide GNAAS[^125 I]YRR and a source of NMT. […] The radiolabelled peptide is then used at concentrations which will lead to 50% enzyme saturation (i.e., at its Km) for the determination of fatty acid analog kinetic characteristics. Representative analogs with sulfur or oxygen in the backbone of the fatty acid chain serve as good substrates for NMT in vitro and will compete for incorporation of ^3 H labelled myri-state into yeast proteins in vivo. In addition, these analogs differ markedly in hydrophobicity from myri-state as measured both by C18 reverse phase HPLC elution profiles and by 2-octanol/water partition coefficients. The analog CH3 O (CH2)11 COOH, for example, partitions into water 20 fold better than myristate. It is believed that these analogs will be incorporated into mammalian acylproteins in vivo and that their incorporation into these proteins will drastically alter protein processing or targeting. It is further believed that the incorporation of fatty acid analogs of both myristate and palmitate into ester linked and phosphatidyl inositol glycan linked acylproteins will also dramatically alter their properties. Since many viral proteins and oncogenes are acylated, these compounds represent a new class of potential antiviral and antineoplastic agents.

[3] = biological target: T1, yeast NMT (Saccharomyces cerevisiae, UniProt P14743); test: in vitro yeast NMT assay, kinetics of fatty acid analog substrates with iodinated peptide GNAAS[125I]YRR; assay type: biochemical; conditions: for Peptide Vm / Acyl CoA Vm: Table 2, relative to myristate control 100%; for Peptide Vm: fatty acid analog at 15 μM; for Acyl CoA Vm: peptide at its Km
T1 construct: 11,000-fold purified preparation of yeast NMT; from tissue; host or cells: yeast
T1 sequence (P14743 1-455): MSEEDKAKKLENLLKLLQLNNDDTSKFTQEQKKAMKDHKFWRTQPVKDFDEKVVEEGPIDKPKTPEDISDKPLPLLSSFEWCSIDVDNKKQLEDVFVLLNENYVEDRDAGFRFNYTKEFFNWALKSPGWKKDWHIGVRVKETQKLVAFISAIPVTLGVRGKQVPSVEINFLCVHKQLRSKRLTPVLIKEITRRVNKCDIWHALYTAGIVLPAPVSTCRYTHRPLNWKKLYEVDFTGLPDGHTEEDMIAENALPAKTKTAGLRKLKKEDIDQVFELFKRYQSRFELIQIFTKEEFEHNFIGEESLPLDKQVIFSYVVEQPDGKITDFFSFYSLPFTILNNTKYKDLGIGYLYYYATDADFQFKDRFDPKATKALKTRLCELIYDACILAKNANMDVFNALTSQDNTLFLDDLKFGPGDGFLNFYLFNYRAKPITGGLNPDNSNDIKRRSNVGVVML
From the text: Similar results were obtained using an 11,000-fold purified preparation of yeast NMT [Towler et al., Proc. Natl. Acad. Sci. USA 84, 2708-2712 (1987)].
Other illustrative examples of the oxy- and thio-substituted fatty acid analog substrate compounds of the invention were synthesized in Examples 6 to 14 and tested in Example 15 as substrates for the yeast NMT.
as §1

[4] = biological target: T2, myristoyl CoA: protein N-myristoyl transferase (NMT) (Saccharomyces cerevisiae, UniProt P14743); test: substrate activity for myristoylating enzyme (general statement); assay type: biochemical; conditions: in words
T2 construct: CoA ester made in situ by Pseudomonas CoA ligase
T2 sequence (P14743 1-455): T1 sequence (P14743 1-455)
Experimental: Purification and use of this enzyme are described, for example, by Towler et al., Proc. Natl. Acad. Sci. USA 84, 2708-2712 (1987); J. Biol. Chem. 262, 1030-1036 (1987).
as §1, with “It is further believed that the incorporation of fatty acid analogs of both myristate and palmitate into ester linked and phosphatidyl inositol glycan linked acylproteins will also dramatically alter their properties. Since many viral proteins and oncogenes are acylated, these compounds represent a new class of potential antiviral and antineoplastic agents.” left out

[5] = C-18 reverse phase HPLC, FIG. 2
[6] = iodinated peptide 40 μM, 0.03% Triton X-100, FIG. 1

Compound: CCSCCCCCCCCCCC(=O)SCCNC(=O)CCNC(=O)[C@H](O)C(C)(C)COP(=O)(O)OP(=O)(O)OC[C@H]1O[C@@H](n2cnc3c(N)ncnc32)[C@H](O)[C@@H]1OP(=O)(O)O
- substrate quality vs myristoyl CoA ([1]; wheat germ NMT): at least as good a substrate for wheat germ NMT as myristoyl CoA itself

Compound: 11-(ethylthio)undecanoyl-GNAASYRR[^125 I]: fatty acid analog acyl-peptide ({11‑(ethylthio)undecanoyl}-GNAAS[Tyr(125I)]RR)
- elution earlier than the corresponding myristoyl peptide [2, 5]: 7 min
- elution earlier than the corresponding myristoyl peptide ([2]; C-18 reverse phase HPLC, FIG. 2, listed as 11-(ethylthio)undecanoyl-GNAAS [^125 I]YRR): seven minutes earlier

Compound: CCCOCCCCCCCCCC(=O)O [CH3 (CH2)2 O(CH2)9 COOH, 10-(Propoxy)decanoic acid]
- Peptide Vm [3]: 150%
- Acyl CoA Vm [3]: 250%

Compound: CCCSCCCCCCCCCC(=O)O [CH3 (CH2)2 S(CH2)9 COOH, 10-(Propylthio)decanoic acid]
- Acyl CoA Vm [3]: 250%
- Elution Time [2]: 18 min

Compound: CCCCOCCCCCCCCCCC(=O)O [CH3 (CH2)3 O(CH2)10 COOH, 11-(1-Butoxy)undecanoic acid]
- Peptide Vm [3]: 25%
- Acyl CoA Vm [3]: 80%
- Elution Time [2]: 19 min
- effectiveness as substrate [4]: less effective than the analogs based on C13 -C14 fatty acids

Compound: CCCCCCCCOCCCCC(=O)O [CH3 (CH2)7 O(CH2)4 COOH, 5-(octyloxy)pentanoic acid]
- Elution Time [2]: 16 min

Compound: CCCCCCCCSCCCCC(=O)O [CH3 (CH2)7 S(CH2)4 COOH, 5-(Octylthio)pentanoic acid]
- Acyl CoA Vm [3]: 160%
- Elution Time [2]: 21 min

Compound: CCCCCCCCCCCCCC(=O)O [CH3 (CH2)12 COOH, myristic acid, reference compound]
- Peptide Vm [3]: 100%
- Acyl CoA Vm [3]: 100%
- elution time of fatty acyl derivative of GNAAS[125I]YRR [2, 5]: 28 min
- elution time of fatty acyl derivative of GNAAAARR [2]: 24 min
- Elution Time [2]: 26 min

Compound: CCOCCCCCCCCCCC(=O)O [CH3 CH2 O(CH2)10 COOH, 11-(Ethoxy)undecanoic acid]
- Peptide Vm [3]: 62%
- Acyl CoA Vm [3]: 64%
- Elution Time [2]: 12 min

Compound: CCSCCCCCCCCCCC(=O)O [CH3 CH2 S(CH2)10 COOH, 11-(Ethylthio)undecanoic acid]
- Km and Vmax vs C14:0 fatty acid ([3]; 11,000-fold purified yeast NMT): indistinguishable from that of the C14:0 fatty acid
- Peptide Vm [3]: 98%
- Acyl CoA Vm [3]: 130%
- effect on the kinetic characteristics of the peptide substrate ([1]; in words, vs myristic acid): did not significantly alter the kinetic characteristics of the peptide substrate
- Km (as CoA ester), times higher than for myristate [1, 6]: 1.5 times
- Vmax (as CoA ester), times higher than for myristate [1, 6]: 3.5 times
- apparent maximal velocity, times higher than with myristic acid ([1]; peptide substrate varied): 2.3 times
- Elution Time [2]: 18 min
- hydrophobicity ([2]; in words, vs myristic acid): decreases its hydrophobicity; also recorded: significantly different from that of myristic acid
- effectiveness as substrate [4]: leaves intact its ability to act as a substrate

Compound: C#CCOCCCCCCCCCC(=O)O [HC≡CCH2 O(CH2)9 COOH, 10-(2-Propynoxy)decanoic acid]
- Peptide Vm [3]: 200%
- Acyl CoA Vm [3]: 320%
- Elution Time [2]: 9 min

Compound: CCCCCCCCCC(=O)O [decanoic acid, reference compound]
- elution time of fatty acyl derivative of GNAAAARR [2]: 9 min

Compound: CCCCCCCCCCCC(=O)O [dodecanoic acid, reference compound]
- elution time of fatty acyl derivative of GNAAS[125I]YRR [2, 5]: 23 min
- elution time of fatty acyl derivative of GNAAAARR [2]: 18 min

Compound: CCCCCCCCCCCCCCCC(=O)O [palmitic acid, reference compound]
- elution time of fatty acyl derivative of GNAAAARR [2]: 30 min

Compound: Gly-Asn-Ala-Ala-Ser-[^125 I]Tyr-Arg-Arg [free peptide, reference compound]
- elution of free peptide (void volume) [2, 5]: 3 to 5 min
